This is an account of results in patent US4122184A, “Benzimidazole insecticides” (priority 1977, dated 1978).

For one series, the system named is Southern armyworm larvae. As to conditions: 250 ppm; cited from earlier work.
The next series has as its system milkweed bugs. As to conditions: 250 ppm; cited from earlier work.
Another series deals with oriental roaches. As to conditions: 250 ppm; cited from earlier work.
For the next series, the system named is boll weevils. Particulars: 250 ppm; cited from earlier work.
For the next series, the system named is house flies. As to conditions: 250 ppm; cited from earlier work.
Another series relates to Two-spotted Spider Mite. As to the kind of experiment: Two-spotted Spider Mite test. Particulars: 25 ppm, 48 h. It counts as in vivo, Tetranychus urticae (Acarina). On the procedure:
The procedure in this test is the same as that in the previous aphid test, except that about 100 two-spotted spider mites from a stock colony raised on squash plants are transferred to a cut squash cotyledon. The mortality is estimated 48 hours after spraying. The same rating scale is used.

The test system of another series is House Fly. As to the kind of experiment: Housefly (Contact) Test. It counts as in vivo, Musca domestica (Diptera). As to conditions: 50 ppm, 24 h. On the procedure:
Rearing cages containing four-day old adult house flies are chilled at 35°-40° F. for about 1 hour. One hundred flies are transferred from the rearing cage to each test cage using a small scoop. The caged flies are kept for 1-2 hours at 70°-80° F. The cages are sprayed in the same manner as described for the milkweed bug with 5 ml. of the test formulation. Two unsprayed cages are held as controls and two cages are sprayed with a 50 ppm DDT formulation as a reference standard. Mortality counts are made 24 hours after spraying. […] The same rating scale is employed as heretofore.

A further series relates to Oriental Cockroach. As to the kind of experiment: Oriental Roach Test. In kind it is in vivo, Blatta orientalis (Orthoptera). Particulars: 24 h. On the procedure:
A rearing pan of late instar (3-4 months old) roaches is placed in a cold room for about 1 hour. Ten nymphs are taken from the pan and placed in each cage and the caged insects are kept at 70°-80° F. for 1 hour. The test cages are then sprayed in the manner indicated above in the milkweed bug test using 5 ml. of a formulation containing a specified amount of the insecticide. The test cages are held for 72 hours during which time the cockroaches are neither fed nor watered. Controls consist of 2 unsprayed cages, two cages sprayed with the formulation alone and 2 cages with a formulation containing 1000 ppm of heptachlor. Mortality counts are made 24 hours after spraying by shaking the cages lightly. All cockroaches remaining in the bottom are counted as dead.

Series [1] concerns Boll Weevil. The experiment in a line: Boll Weevil Test. Particulars: 48 h. In kind it is in vivo, Anthonomus grandis (Coleoptera). The source says:
The procedure is identical to that employed for the Mexican bean beetle and the Southern armyworm, except that 10 adult boll weevils are placed on cotton leaves that have been dipped into formulations of the test compounds. The same rating scale is used.

In series [2] the test system is Southern Corn Rootworm Adults. The experiment in a line: Field trial, stomach poison test. In kind it is in vivo. The method in brief:
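Treated foliage (dipped, or sprayed at 10 psi, then dried) is offered to counted insects in dishes. Scoring of mortality uses a 0–9 scale at three time points up to 72 h.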

Series [3] concerns Southern Corn Rootworm Adults. As to the kind of experiment: Field trial, contact poison test. It counts as in vivo. The method in brief: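 Contact spray, atomizer 10 psi, arm's length, several concentrations; infested plants in water bottles, stems wrapped in cellucotton, plants spaced apart. Scored 24, 48, 72 h; scale 0–9 by percent mortality.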
For series [4], the system named is Boll Weevil. As to the kind of experiment: Field trial (first summer), topical. It counts as in vivo, Anthonomus grandis. As to conditions: .078125 μg/μl. On the procedure: (§1) In a variation of the above test, 1 microliter of a test solution containing a predetermined number of micrograms of benzimidazole was applied directly to larvae or adult insects.
(§2) During the previous summer similar field trials were conducted employing the same tests as heretofore but with some additional species of insects not included in the later tests. The results listed below are for tests in which an insect mortality was established by a given application route and at a given concentration in a particular test. The same 0 - 9 scoring system is used as is the designation of compounds by alphabetical symbols.

The subject of the next series is Confused Flour Beetle. The experiment in a line: Field trial (first summer), topical. In kind it is in vivo. As to the method:
as §1, §2

The next series has as its system Picnic Beetle. As to the kind of experiment: Field trial (first summer), topical. In kind it is in vivo. Particulars: .078125 μg/μl. On the procedure:
as §1, §2

The nature of series [5]: Solubility of sodium salt. In kind it is physicochemical.
The subject of another series is Yellow Mealworm Larvae. As to the kind of experiment: Field trial, topical application. It counts as in vivo. The arrangement: key: 0 = 0-10% mortality, 9 = 91-100% mortality (0-9 scale). Summed up: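 1 μL benzimidazole solution of set microgram content applied topically to larvae or adults. Mortality read at 24, 48 and 72 h where applicable, rated 0-9 (0 = 0-10%, 9 = 91-100%); values are average mortality per concentration.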

Another series deals with Mexican Bean Beetle. As to the kind of experiment: Field trial (first summer), topical. In kind it is in vivo, Epilachna varivestis. Particulars: .25 μg/μl. On the procedure: as §1, §2
A further series deals with Buffalo Tree Hopper. As to the kind of experiment: Field trial (first summer), contact. In kind it is in vivo. Particulars: 125 ppm.
Text: (§3) Infested plants are placed in 6 oz. prescription bottles filled with water to keep them from wilting. Cellucotton is wrapped around the plant stem and squeezed into the bottle neck to prevent the insects from drowning.
(§4) A DeVilbiss Special Atomizer (5004) is used at 10 psi to spray the test plant with different concentrations of compounds. The atomizer is held at arm's length to prevent blowing the insects off the host plant. After treating, the bottles are placed on a table covered with brown wrapping paper to catch the dead insects as they drop from the plant. The plants are spaced so the leaves or plants are not touching one another.
(§5) The results are read at 24, 48, and 72 hours when applicable. The rating scale is 0 to 9 where 0 = 0-10 percent and 9 = 91-100 percent mortality.
as §2

For another series, the system named is Differential Grasshopper. The experiment in a line: Field trial (first summer), contact. It counts as in vivo. As to conditions: 125 ppm.
Text: as §3, §4, §5, §2

For the next series, the system named is Meadow Grasshopper. The experiment in a line: Field trial (first summer), contact. It counts as in vivo. Particulars: 125 ppm.
Text: as §3, §4, §5, §2

Consider `FC(F)(F)c1nc2cc(Cl)c(Cl)cc2[nH]1` [2-trifluoromethyl-5,6-dichlorobenzimidazole], for which the insecticidal activity entry with Southern armyworm larvae is reported as “same excellent activity”; in the series with milkweed bugs it was “no activity”; with oriental roaches it was “no activity”; in the series on boll weevils it was “no activity”; in the series on house flies, “no activity”.

For the compound `O=[N+]([O-])c1cc(C(F)(F)F)cc2nc(C(F)(F)F)[nH]c12.[Na]` [B, 2,6-bis(trifluoromethyl)-4-nitrobenzimidazole, sodium salt], the mortality rating with Two-spotted Spider Mite is listed as 8.5; in the series on House Fly, 8.5; in the series with Oriental Cockroach (25 ppm) it was “.5”; in the series on Oriental Cockroach (100 ppm), 3.5; in the series on Boll Weevil [1] (25 ppm), 8.5; with Boll Weevil [1] (250 ppm), 8.5. Further, the average mortality rating in [2] (25 ppm) is reported as 4; in [2] (50 ppm), 5; in series [2] (100 ppm) it was 9 (91-100 percent mortality); in series [3] (25 ppm) it was 0 (0-10 percent); in [3] (50 ppm), 3; in [3] (100 ppm), 8. In addition, the insect mortality rating in the series with Boll Weevil [4], in the series on Confused Flour Beetle (.3125 μg/μl) and in the series on Picnic Beetle was 9 (91-100 percent mortality) each time. In addition, the solubility in acid result in series [5] (acid) was “insoluble in acid”. Also, the solubility in water result in [5] (water) was “water soluble”.

On to `C=CCOC(=O)n1c(C(F)(F)F)nc2c([N+](=O)[O-])cc(C(F)(F)F)cc21` [K, allyl 2,6-bis(trifluoromethyl)-4-nitro-1-benzimidazolecarboxylate], for which the average mortality rating in the series with Yellow Mealworm Larvae (0.03 μg/μl) turned out to be 1; in the series on Yellow Mealworm Larvae (0.07 μg/μl) it was 3; with Yellow Mealworm Larvae (0.15 μg/μl), 6. For the same compound, the insect mortality rating in the series with Boll Weevil [4], with Mexican Bean Beetle, with Confused Flour Beetle (.078125 μg/μl), with Picnic Beetle, in the series on Buffalo Tree Hopper and in the series with Differential Grasshopper was 9 (91-100 percent mortality) each time. Moreover, the insect mortality rating in the series with Meadow Grasshopper is 9 (91-100 percent mortality).
